Data on 20 molecules can be found in US20250084087A1, “BICYCLIC HETEROCYCLES AS MRGPRX2 ANTAGONISTS” (Incyte Corporation, priority 2023, published 2025).

What all share (assay type): cell-based
In experiment [1] the target is T1, MRGPRX2 (Homo sapiens, UniProt Q96LB1).
T1 sequence (Q96LB1 1-330): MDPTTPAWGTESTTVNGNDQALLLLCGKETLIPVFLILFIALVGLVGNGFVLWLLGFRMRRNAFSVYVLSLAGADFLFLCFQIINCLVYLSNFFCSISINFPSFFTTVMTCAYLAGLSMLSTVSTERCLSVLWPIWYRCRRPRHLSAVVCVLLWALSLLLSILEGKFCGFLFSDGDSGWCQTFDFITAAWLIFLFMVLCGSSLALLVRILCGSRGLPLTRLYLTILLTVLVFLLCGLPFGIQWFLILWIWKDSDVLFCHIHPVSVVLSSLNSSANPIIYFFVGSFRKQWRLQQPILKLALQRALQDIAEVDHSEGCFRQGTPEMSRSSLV
The experiment can be described thus: MRGPRX2 IP1 HTRF assay. Further details: host or cells: CHO-K1. Particulars: CHO-K1 cells stably expressing human MRGPRX2; IP1 accumulation; agonist Cortistatin 14 1 μM. The procedure, abridged:
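CHO-K1 cells stably expressing human MRGPRX2, preincubated with compound 1 h at 37 °C, then stimulated with 1 μM Cortistatin 14 for 1 h. IP1 measured by HTRF against standard curve, normalized to DMSO and reference antagonist controls; IC50 from 3- or 4-parameter Hill fit.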

Experiment [2] addresses T1, MRGPRX2. The experiment can be described thus: MRGPRX2 β-Arrestin recruitment assay (PathHunter). Further details: host or cells: CHO-K1 (PathHunter). Particulars: PathHunter CHO-K1 MRGPRX2 β-Arrestin cell line; agonist Cortistatin 14 0.25 μM. The procedure, abridged:
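CHO-K1 PathHunter cells co-expressing ProLink-tagged MRGPRX2 and enzyme-acceptor-tagged β-arrestin were preincubated with compound 1 h at 37° C., then stimulated with cortistatin-14 (0.25 μM final) for 90 min. Enzyme-complementation luminescence read after 1 h detection; data normalized to DMSO and reference antagonist, IC50 from 3- or 4-parameter Hill fit.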

In experiment [3] the target is T1, MRGPRX2. The experiment in a line: MRGPRX2 FLIPR calcium mobilization assay. Further details: host or cells: CHO-K1. Particulars: CHO-K1 cells stably expressing human MRGPRX2; Ca2+ release; agonist Cortistatin-14 at EC80. The protocol:
Example A. MRGPRX2 FLIPR Calcium Mobilization Assay
Chinese hamster ovary (CHO-K1) cells stably expressing human MRGPRX2 were purchased from Genescript (Piscataway, NJ). The cells were maintained in culture medium (Ham's F-12K) containing 10% (v/v) FBS, 200 μg/mL Zeocin, 100 units/mL penicillin G and 100 μg/mL streptomycin (Life Technologies, Carlsbad, CA). For the assay, the cells were harvested and resuspended with culture medium without Zeocin before plating at 8000 cells per well in 20 μL in 384-well black clear bottom cell culture plates (VWR, Radnor, PA). After 24 hour culture at 37° C. and 5% CO2, the cells were loaded with 20 μL/well of calcium dye (FLIPR Calcium 6 Assay Kit, Molecular Devices, San Jose, CA) diluted in loading buffer (1× Hank's Balanced Salt Solution (HBSS), 5 mM probenecid, 20 mM 4-(2-hydroxyethyl)-1-piperazineethanesulfonic acid (HEPES), pH 7.4, VWR, Radnor, PA) followed with 45 min. incubation at 37° C. and 40 min. at r.t. in the dark. Cells were then treated with the addition of 10 uL/well test compounds with a range of increasing concentrations diluted in the assay buffer (1×HBSS, 20 mM HEPES, pH 7.4, VWR, Radnor, PA) with FLIPR Penta (Molecular Devices. San Jose, CA) and incubated for 30 min. at r.t. Ca^2+ release was measured with FLIPR Penta with 10 seconds basal fluorescence measurement, then 12.5 μL of 5× agonist Cortistatin-14 (Tocris, Minneapolis, MN) at final concentration corresponding to the EC80 were added followed with continued fluorescence signal monitoring for an additional 110 seconds. The base line adjusted (median of first 10s base line) max value of the Relative Fluorescence Unit (RFU) was plotted against compound concentrations. Wells with no compound were served as the positive controls, and wells with high concentration of reference antagonist were used as negative controls. IC50 curves were globally fitted with 3- or 4-parameter Hill equation in a Genedata Screener (Genedata Basel, Switzerland).

Turning to `NS(=O)(=O)N1CC(CNc2cc(C(F)(F)F)nc3cc(C(F)(F)F)nn23)(c2ccc(F)cc2)C1` [Example 30, 3-(((2,5-Bis(trifluoromethyl)pyrazolo[1,5-a]pyrimidin-7-yl)amino)methyl)-3-(4-fluorophenyl)azetidine-1-sulfonamide], the concentration for half-maximal inhibition (IC50) at MRGPRX2 [1], on MRGPRX2 [2] and on MRGPRX2 [3] was 0.1 to 100 nM in each case.
Regarding `NC(=O)N1CCC(CNc2cc(C(F)(F)F)nc3cc(C(F)(F)F)nn23)(c2ccccc2)C1` (centres unmarked) [Example 4, 3-(((2,5-Bis(trifluoromethyl)pyrazolo[1,5-a]pyrimidin-7-yl)amino)methyl)-3-phenylpyrrolidine-1-carboxamide], the IC50 at MRGPRX2 [1], at MRGPRX2 [2] and at MRGPRX2 [3] was 0.1 to 100 nM in each case.
In the case of `NC(=O)N1CC(CNc2cc(C(F)(F)F)nc3cc(C(F)(F)F)nn23)(c2ccc(F)cc2)C1` [Example 31, 3-(((2,5-Bis(trifluoromethyl)pyrazolo[1,5-a]pyrimidin-7-yl)amino)methyl)-3-(4-fluorophenyl)azetidine-1-carboxamide], the IC50 at MRGPRX2 [1], on MRGPRX2 [2] and at MRGPRX2 [3] was 0.1 to 100 nM in each case.
In the case of `FC(F)(F)c1cn2c(NCC3(c4ccncc4)CCC3)cccc2n1` [Example 37, N-((1-(Pyridin-4-yl)cyclobutyl)methyl)-2-(trifluoromethyl)imidazo[1,2-a]pyridin-5-amine], the half-inhibitory concentration (IC50) at MRGPRX2 [1], at MRGPRX2 [2] and on MRGPRX2 [3] was 0.1 to 100 nM throughout.
As for `[2H]C([2H])([2H])NC(=O)N1CC(CNc2cc(C(F)(F)F)nc3cc(C(F)F)nn23)(c2ccc(F)cc2)C1` [Example 62, 3-(((2-(Difluoromethyl)-5-(trifluoromethyl)pyrazolo[1,5-a]pyrimidin-7-yl)amino)methyl)-3-(4-fluorophenyl)-N-(methyl-d3)azetidine-1-carboxamide], the IC50 on MRGPRX2 [1], on MRGPRX2 [2] and at MRGPRX2 [3] was 0.1 to 100 nM throughout.
In the case of `[2H]C([2H])([2H])NC(=O)N1CC(CNc2cc(C(F)(F)F)nc3cc(C(F)(F)F)nn23)(c2ccc(F)cn2)C1` [Example 61, 3-(((2,5-Bis(trifluoromethyl)pyrazolo[1,5-a]pyrimidin-7-yl)amino)methyl)-3-(5-fluoropyridin-2-yl)-N-(methyl-d3)azetidine-1-carboxamide], the concentration for half-maximal inhibition (IC50) on MRGPRX2 [1], at MRGPRX2 [2] and on MRGPRX2 [3] was 0.1 to 100 nM throughout.
Take `O=C(N[C@H]1CC[C@H](O)CC1)N1CC(CNc2cc(C(F)(F)F)nc3cc(Br)nn23)(c2ccc(F)cc2)C1` [Example 96, 3-(((2-Bromo-5-(trifluoromethyl)pyrazolo[1,5-a]pyrimidin-7-yl)amino)methyl)-3-(4-fluorophenyl)-N-((1r,4r)-4-hydroxycyclohexyl)azetidine-1-carboxamide]: the half-inhibitory concentration (IC50) at MRGPRX2 [1], on MRGPRX2 [2] and at MRGPRX2 [3] was 0.1 to 100 nM each time.
Regarding `N#Cc1cc2nc(Cl)cc(NCC3(c4ccccc4)CCNCC3)n2n1` [Example 104, 5-Chloro-7-(((4-phenylpiperidin-4-yl)methyl)amino)pyrazolo[1,5-a]pyrimidine-2-carbonitrile], the IC50 was over 1000 nM on MRGPRX2 [1] and 100 to 1000 nM on MRGPRX2 [3].
The matching figures for `NC(=O)N1CC(CNc2cccc3nc(C(F)(F)F)cn23)(c2ccc(F)cc2)C1` [Example 35, 3-(4-Fluorophenyl)-3-(((2-(trifluoromethyl)imidazo[1,2-a]pyridin-5-yl)amino)methyl)azetidine-1-carboxamide]: 0.1 to 100 nM and 0.1 to 100 nM.
The matching figures for `FC(F)(F)c1cn2c(NCC3(c4ccc(Br)cc4)CCC3)cccc2n1` [Example 38, N-((1-(4-Bromophenyl)cyclobutyl)methyl)-2-(trifluoromethyl)imidazo[1,2-a]pyridin-5-amine]: 0.1 to 100 nM and 0.1 to 100 nM.
In the case of `CNC(=O)N1CCC(CNc2cccc3nc(C(C)C)cn23)(c2ccccc2)CC1` [Example 29, 4-(((2-Isopropylimidazo[1,2-a]pyridin-5-yl)amino)methyl)-N-methyl-4-phenylpiperidine-1-carboxamide], the half-inhibitory concentration (IC50) on MRGPRX2 [1] was 100 to 1000 nM; at MRGPRX2 [3] it was 0.1 to 100 nM.
Taken in the same sequence, the figures for `CNC(=O)N1CCC(CNc2cc(Cl)cc3nc(C(F)(F)F)cn23)(c2ccccc2)CC1` [Example 27, 4-(((7-Chloro-2-(trifluoromethyl)imidazo[1,2-a]pyridin-5-yl)amino)methyl)-N-methyl-4-phenylpiperidine-1-carboxamide] were 0.1 to 100 nM and 0.1 to 100 nM.
Taken in the same sequence, the figures for `O=C(N1CCC(CNc2cccc3nc(C(F)(F)F)cn23)(c2ccccc2)CC1)N1CC(F)(F)C1` [Example 19, (3,3-Difluoroazetidin-1-yl)(4-phenyl-4-(((2-(trifluoromethyl)imidazo[1,2-a]pyridin-5-yl)amino)methyl)piperidin-1-yl)methanone] were 0.1 to 100 nM and 0.1 to 100 nM.
Taken in the same sequence, the figures for `Cc1cc(NCC2(c3ccccc3)CCN(C(N)=O)CC2)n2nc(C(F)(F)F)nc2n1` [Example 7, 4-(((5-Methyl-2-(trifluoromethyl)-[1,2,4]triazolo[1,5-a]pyrimidin-7-yl)amino)methyl)-4-phenylpiperidine-1-carboxamide] were 100 to 1000 nM and 0.1 to 100 nM.
`CN1CCC(CNc2cc(C(F)(F)F)nc3cc(C(F)(F)F)nn23)(c2ccccc2)CC1` [Example 17, N-((1-Methyl-4-phenylpiperidin-4-yl)methyl)-2,5-bis(trifluoromethyl)pyrazolo[1,5-a]pyrimidin-7-amine]: the IC50 on MRGPRX2 [1] and on MRGPRX2 [3] was 0.1 to 100 nM throughout.
Consider `Cc1cc2nc(C(F)(F)F)cc(NCC3(c4ccccc4)CCOC3)n2n1` (centres unmarked) [Example 77, 2-Methyl-N-((3-phenyltetrahydrofuran-3-yl)methyl)-5-(trifluoromethyl)pyrazolo[1,5-a]pyrimidin-7-amine], for which the IC50 was in the range of 100 to 1000 nM at MRGPRX2 [1] and 0.1 to 100 nM at MRGPRX2 [3].
Taken in the same sequence, the figures for `OCCN1CCC(CNc2cccc3nc(C(F)(F)F)cn23)(c2ccc(F)cn2)CC1` [Example 23, 2-(4-(5-Fluoropyridin-2-yl)-4-(((2-(trifluoromethyl)imidazo[1,2-a]pyridin-5-yl)amino)methyl)piperidin-1-yl)ethan-1-ol] were 100 to 1000 nM and 100 to 1000 nM.
Taken in the same sequence, the figures for `CNC(=O)N1CCC(CNc2cc(C(F)(F)F)nc3cc(C(F)(F)F)nn23)(c2ccccc2)CC1` [Example 15, 4-(((2,5-Bis(trifluoromethyl)pyrazolo[1,5-a]pyrimidin-7-yl)amino)methyl)-N-methyl-4-phenylpiperidine-1-carboxamide] were 0.1 to 100 nM and 0.1 to 100 nM.
Taken in the same sequence, the figures for `NS(=O)(=O)N1CC(CNc2cccc3nc(C(F)(F)F)nn23)(n2cc(F)cn2)C1` [Example 11, 3-(4-Fluoro-1H-pyrazol-1-yl)-3-(((2-(trifluoromethyl)-[1,2,4]triazolo[1,5-a]pyridin-5-yl)amino)methyl)azetidine-1-sulfonamide] were 0.1 to 100 nM and 0.1 to 100 nM.
In the case of `NC(=O)N1CCC(CNc2cc(C(F)(F)F)nc3cc(Br)nn23)(c2ccc(F)cn2)CC1` [Example 22, 4-(((2-Bromo-5-(trifluoromethyl)pyrazolo[1,5-a]pyrimidin-7-yl)amino)methyl)-4-(5-fluoropyridin-2-yl)piperidine-1-carboxamide], the IC50 on MRGPRX2 [1] and on MRGPRX2 [3] was 0.1 to 100 nM each time.
